{
  "source": "the supplement of paper PMC10307832",
  "assay_in_all_cases": "relative viability (nuclei count vs DMSO), 5 days (fraction); higher = more cells survive",
  "key": {"[1]": {"test_system": "A-427", "method_in_brief": "(§1)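 Lung cancer cell lines were seeded in 1536-well plates and dosed by pin tool the next day, with either a single drug or a fixed anchor-drug dose combined with five library-drug doses (not always all listed) spaced in √10 steps. Five days later, one step fixed the cells and stained their nuclei (final 0.05% Triton X-100, 1% formaldehyde, 1 ug/ml Hoechst), and nuclei were counted on 4× images. Relative viability is the nuclei count in treated wells divided by the count in vehicle wells, and each value is the median of duplicate plates.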"}, "[2]": {"test_system": "CAL-12T", "method_in_brief": "as §1"}, "[3]": {"test_system": "COR-L 105", "method_in_brief": "as §1"}, "[4]": {"test_system": "EMC-BAC-2", "method_in_brief": "as §1"}, "[5]": {"test_system": "HARA", "method_in_brief": "as §1"}, "[6]": {"test_system": "HCC-366", "method_in_brief": "as §1"}, "[7]": {"test_system": "HCC-827", "method_in_brief": "as §1"}, "[8]": {"test_system": "HOP-62", "method_in_brief": "as §1"}, "[9]": {"test_system": "LCLC-103H", "method_in_brief": "as §1"}, "[10]": {"test_system": "NCI-H1395", "method_in_brief": "as §1"}, "[11]": {"test_system": "NCI-H1437", "method_in_brief": "as §1"}},
  "data": [
    {"smiles": "O=c1cc(N2CCOCC2)oc2c(-c3cccc4c3sc3ccccc34)cccc12", "note": "+ Cc1cc(Nc2cc(N3CCN(C)CC3)nc(Sc3ccc(NC(=O)C4CC4)cc3)n2)n[nH]1 [Tozasertib] (partner 0.1 µM)", "values": [
      {"measurement": "relative viability", "setting": "[1]; first compound 0.01 µM", "value": 0.232},
      {"measurement": "relative viability", "setting": "[1]; first compound 0.03162 µM", "value": 0.201},
      {"measurement": "relative viability", "setting": "[1]; first compound 0.1 µM", "value": 0.212},
      {"measurement": "relative viability", "setting": "[1]; first compound 0.3162 µM", "value": 0.223},
      {"measurement": "relative viability", "setting": "[1]; first compound 1 µM", "value": 0.212},
      {"measurement": "relative viability", "setting": "[2]; first compound 0.01 µM", "value": 0.354},
      {"measurement": "relative viability", "setting": "[2]; first compound 0.03162 µM", "value": 0.248},
      {"measurement": "relative viability", "setting": "[2]; first compound 0.1 µM", "value": 0.347},
      {"measurement": "relative viability", "setting": "[2]; first compound 0.3162 µM", "value": 0.277},
      {"measurement": "relative viability", "setting": "[2]; first compound 1 µM", "value": 0.288},
      {"measurement": "relative viability", "setting": "[3]; first compound 0.01 µM", "value": 0.346},
      {"measurement": "relative viability", "setting": "[3]; first compound 0.03162 µM", "value": 0.286},
      {"measurement": "relative viability", "setting": "[3]; first compound 0.1 µM", "value": 0.373},
      {"measurement": "relative viability", "setting": "[3]; first compound 0.3162 µM", "value": 0.303},
      {"measurement": "relative viability", "setting": "[3]; first compound 1 µM", "value": 0.299},
      {"measurement": "relative viability", "setting": "[4]; first compound 0.01 µM", "value": 0.303},
      {"measurement": "relative viability", "setting": "[4]; first compound 0.03162 µM", "value": 0.29},
      {"measurement": "relative viability", "setting": "[4]; first compound 0.1 µM", "value": 0.313},
      {"measurement": "relative viability", "setting": "[4]; first compound 0.3162 µM", "value": 0.33},
      {"measurement": "relative viability", "setting": "[4]; first compound 1 µM", "value": 0.304},
      {"measurement": "relative viability", "setting": "[5]; first compound 0.01 µM", "value": 0.139},
      {"measurement": "relative viability", "setting": "[5]; first compound 0.03162 µM", "value": 0.139},
      {"measurement": "relative viability", "setting": "[5]; first compound 0.1 µM", "value": 0.477},
      {"measurement": "relative viability", "setting": "[5]; first compound 0.3162 µM", "value": 0.103},
      {"measurement": "relative viability", "setting": "[5]; first compound 1 µM", "value": 0.128},
      {"measurement": "relative viability", "setting": "[6]; first compound 0.01 µM", "value": 0.123},
      {"measurement": "relative viability", "setting": "[6]; first compound 0.03162 µM", "value": 0.125},
      {"measurement": "relative viability", "setting": "[6]; first compound 0.1 µM", "value": 0.102},
      {"measurement": "relative viability", "setting": "[6]; first compound 0.3162 µM", "value": 0.211},
      {"measurement": "relative viability", "setting": "[6]; first compound 1 µM", "value": 0.121},
      {"measurement": "relative viability", "setting": "[7]; first compound 0.01 µM", "value": 0.386},
      {"measurement": "relative viability", "setting": "[7]; first compound 0.03162 µM", "value": 0.435},
      {"measurement": "relative viability", "setting": "[7]; first compound 0.1 µM", "value": 0.431},
      {"measurement": "relative viability", "setting": "[7]; first compound 0.3162 µM", "value": 0.426},
      {"measurement": "relative viability", "setting": "[7]; first compound 1 µM", "value": 0.389},
      {"measurement": "relative viability", "setting": "[8]; first compound 0.01 µM", "value": 0.336},
      {"measurement": "relative viability", "setting": "[8]; first compound 0.03162 µM", "value": 0.315},
      {"measurement": "relative viability", "setting": "[8]; first compound 0.1 µM", "value": 0.402},
      {"measurement": "relative viability", "setting": "[8]; first compound 0.3162 µM", "value": 0.325},
      {"measurement": "relative viability", "setting": "[8]; first compound 1 µM", "value": 0.382},
      {"measurement": "relative viability", "setting": "[9]; first compound 0.01 µM", "value": 0.425},
      {"measurement": "relative viability", "setting": "[9]; first compound 0.03162 µM", "value": 0.538},
      {"measurement": "relative viability", "setting": "[9]; first compound 0.1 µM", "value": 0.485},
      {"measurement": "relative viability", "setting": "[9]; first compound 0.3162 µM", "value": 0.504},
      {"measurement": "relative viability", "setting": "[9]; first compound 1 µM", "value": 0.457},
      {"measurement": "relative viability", "setting": "[10]; first compound 0.01 µM", "value": 0.78},
      {"measurement": "relative viability", "setting": "[10]; first compound 0.03162 µM", "value": 0.776},
      {"measurement": "relative viability", "setting": "[10]; first compound 0.1 µM", "value": 0.659},
      {"measurement": "relative viability", "setting": "[10]; first compound 0.3162 µM", "value": 0.832},
      {"measurement": "relative viability", "setting": "[10]; first compound 1 µM", "value": 0.682},
      {"measurement": "relative viability", "setting": "[11]; first compound 0.01 µM", "value": 0.351},
      {"measurement": "relative viability", "setting": "[11]; first compound 0.03162 µM", "value": 0.406}
    ]}
  ]
}
